Test results published in ChEMBL document CHEMBL4613208, “Isatin derivatives and their anti-bacterial activities” (Eur J Med Chem, 2019).
≈ marks a conversion by molar mass, not a printed value.

Assays:
Staphylococcus aureus [1] = experiment: Antibacterial activity against Staphylococcus aureus; type: functional, organism-based
Pseudomonas aeruginosa [2] = experiment: Antibacterial activity against Pseudomonas aeruginosa; type: functional, organism-based
[3] = test system: Staphylococcus epidermidis; experiment: Antibacterial activity against Staphylococcus epidermidis; type: functional
Bacillus pumilus = experiment: Antibacterial activity against Bacillus pumilus; type: functional
Priestia megaterium = experiment: Antibacterial activity against Bacillus megaterium; type: functional
Escherichia coli [4] = experiment: Potency index, ratio of ED50 for norfloxacin to ED50 for test compound for in vivo antibacterial activity against Escherichia coli infected in po dosed mouse; type: functional
Escherichia coli [5] = experiment: Antibacterial activity against Escherichia coli NCTC 10418; type: functional
Streptococcus pyogenes = experiment: Antibacterial activity against Streptococcus pyogenes; type: functional
Bacillus subtilis [6] = experiment: Antibacterial activity against Bacillus subtilis; type: functional
Proteus vulgaris = experiment: Antibacterial activity against Proteus vulgaris; type: functional
Klebsiella pneumoniae = experiment: Antibacterial activity against Klebsiella pneumoniae; type: functional
Shigella flexneri = experiment: Antibacterial activity against Shigella flexneri; type: functional
Escherichia coli [7] = experiment: In vivo antibacterial activity against Escherichia coli infected in po dosed mouse; type: functional
[8] = Toxicity in po dosed mouse; type: organism-based; details: in vivo
Escherichia coli [9] = experiment: Antibacterial activity against Escherichia coli; type: functional, organism-based
Salmonella typhi = experiment: Antibacterial activity against Salmonella typhi; type: functional, Salmonella enterica subsp. enterica serovar Typhi; details: Salmonella enterica
Vibrio cholerae = experiment: Antibacterial activity against Vibrio cholerae; type: functional
Citrobacter freundii = experiment: Antibacterial activity against Citrobacter freundii; type: functional
Staphylococcus aureus [10] = experiment: Antibacterial activity against Staphylococcus aureus ATCC 25923 after 24 hrs by agar well diffusion technique; type: functional; details: ATCC 25923, 24 h
Bacillus cereus = experiment: Antibacterial activity against Bacillus cereus after 24 hrs by agar well diffusion technique; type: functional
Escherichia coli [11] = experiment: Antibacterial activity against Escherichia coli ATCC 25922 after 24 hrs by agar well diffusion technique; type: functional; details: ATCC 25922, 24 h
Shigella dysenteriae [12] = experiment: Antibacterial activity against Shigella dysenteriae after 24 hrs by agar well diffusion technique; type: functional
Shigella dysenteriae [13] = experiment: Potency index, ratio of MIC for sulfamethoxazole to MIC for test compound for antibacterial activity against Shigella dysenteriae after 24 hrs by agar well diffusion technique; type: functional
Escherichia coli [14] = experiment: Antibacterial activity against Escherichia coli assessed as zone of inhibition at 20 mg/ml; type: functional; details: read-out: IZ
Pseudomonas aeruginosa [15] = experiment: Antibacterial activity against Pseudomonas aeruginosa assessed as zone of inhibition at 20 mg/ml; type: functional; details: read-out: IZ
Staphylococcus aureus [16] = experiment: Antibacterial activity against Staphylococcus aureus assessed as zone of inhibition at 20 mg/ml; type: functional; details: read-out: IZ
Bacillus subtilis [17] = experiment: Antibacterial activity against Bacillus subtilis assessed as zone of inhibition at 20 mg/ml; type: functional; details: read-out: IZ

Work on `N[C@@H](C(=O)N[C@@H]1C(=O)N2C(C(=O)O)=C(Cl)CS[C@H]12)c1ccccc1` [CEFACLOR ANHYDROUS] yielded an MIC (Staphylococcus aureus [1]) of 2 to 8 µg/mL (≈ 5.44 to 21.8 µM), an MIC (Pseudomonas aeruginosa [2]) of 2 to 8 µg/mL (≈ 5.44 to 21.8 µM) and an MIC [3] of 2 to 8 µg/mL (≈ 5.44 to 21.8 µM). The MIC (Bacillus pumilus) was 2 to 8 µg/mL (≈ 5.44 to 21.8 µM) and the MIC (Priestia megaterium) was 2 to 8 µg/mL (≈ 5.44 to 21.8 µM).

For `CCn1cc(C(=O)O)c(=O)c2cc(F)c(N3CCN(CN4C(=O)/C(=N\c5ncc(Cc6cc(OC)c(OC)c(OC)c6)c(N)n5)c5cc(Br)ccc54)CC3)cc21`, the “Ratio ED50” value (Escherichia coli [4]) was over 3.7 and the MIC (Escherichia coli [5]) was under 1 µg/mL.

In the case of `O=C1Nc2ccc(S(=O)(=O)N3CCOCC3)cc2C1=O`, the MIC (Staphylococcus aureus [1]) is reported as 0.007 to 0.49 µg/mL (≈ 0.0236 to 1.65 µM), the MIC (Streptococcus pyogenes) is reported as 0.007 to 0.49 µg/mL (≈ 0.0236 to 1.65 µM) and the MIC (Bacillus subtilis [6]) is reported as 0.007 to 0.49 µg/mL (≈ 0.0236 to 1.65 µM). It also gave an MIC (Proteus vulgaris) of 0.007 to 0.49 µg/mL (≈ 0.0236 to 1.65 µM), an MIC (Klebsiella pneumoniae) of 0.007 to 0.49 µg/mL (≈ 0.0236 to 1.65 µM) and an MIC (Shigella flexneri) of 0.007 to 0.49 µg/mL (≈ 0.0236 to 1.65 µM).

With `CCn1cc(C(=O)O)c(=O)c2cc(F)c(N3CCN(CN4C(=O)/C(=N\c5ccc(S(=O)(=O)Nc6ncnc(OC)c6OC)cc5)c5ccccc54)CC3)cc21` the ED50 (Escherichia coli [7]) was 1.25 mg/kg, the “Ratio ED50” value (Escherichia coli [4]) was over 3.7 and the LD50 [8] was over 4000 mg/kg. The MIC (Escherichia coli [5]) was under 1 µg/mL.

Work on `O=C1C(=O)N(CN2CCN(c3cc4c(cc3F)c(=O)c(C(=O)O)cn4C3CC3)CC2)c2ccccc21` yielded an MIC (Staphylococcus aureus [1]) of 0.1 to 0.5 µg/mL (≈ 0.204 to 1.02 µM), an MIC (Klebsiella pneumoniae) of 0.1 to 0.5 µg/mL (≈ 0.204 to 1.02 µM) and an MIC (Shigella flexneri) of 0.1 to 0.5 µg/mL (≈ 0.204 to 1.02 µM). The MIC (Escherichia coli [9]) was 0.1 to 0.5 µg/mL (≈ 0.204 to 1.02 µM), the MIC (Pseudomonas aeruginosa [2]) was 0.1 to 0.5 µg/mL (≈ 0.204 to 1.02 µM) and the MIC (Salmonella typhi) was 0.1 to 0.5 µg/mL (≈ 0.204 to 1.02 µM). For the same compound, the MIC (Vibrio cholerae) was 0.1 to 0.5 µg/mL (≈ 0.204 to 1.02 µM), the MIC [3] was 0.1 to 0.5 µg/mL (≈ 0.204 to 1.02 µM) and the MIC (Citrobacter freundii) was 0.1 to 0.5 µg/mL (≈ 0.204 to 1.02 µM).

`CC(=O)NC[C@H]1CN(c2ccc(N3CCOCC3)c(F)c2)C(=O)O1` [LINEZOLID] showed an MIC (Staphylococcus aureus [1]) of 4 to 8 µg/mL (≈ 11.9 to 23.7 µM), an MIC (Pseudomonas aeruginosa [2]) of 4 to 8 µg/mL (≈ 11.9 to 23.7 µM) and an MIC [3] of 4 to 8 µg/mL (≈ 11.9 to 23.7 µM). It also gave an MIC (Bacillus pumilus) of 4 to 8 µg/mL (≈ 11.9 to 23.7 µM) and an MIC (Priestia megaterium) of 4 to 8 µg/mL (≈ 11.9 to 23.7 µM).

With `CC1(C)S[C@@H]2[C@H](NC(=O)[C@H](N)c3ccccc3)C(=O)N2[C@H]1C(=O)O` [AMPICILLIN] the MIC (Staphylococcus aureus [1]) was 0.007 to 1.95 µg/mL (≈ 0.02 to 5.58 µM), the MIC (Streptococcus pyogenes) was 0.007 to 1.95 µg/mL (≈ 0.02 to 5.58 µM) and the MIC (Bacillus subtilis [6]) was 0.007 to 1.95 µg/mL (≈ 0.02 to 5.58 µM). For the same compound, the MIC (Proteus vulgaris) was 0.007 to 1.95 µg/mL (≈ 0.02 to 5.58 µM), the MIC (Klebsiella pneumoniae) was 0.007 to 1.95 µg/mL (≈ 0.02 to 5.58 µM) and the MIC (Shigella flexneri) was 0.007 to 1.95 µg/mL (≈ 0.02 to 5.58 µM).

`CC1S/C(=N/N=C2\C(=O)Nc3ccc(S(=O)(=O)N4CCOCC4)cc32)N(c2ccccc2)C1=O` (stereo not given) showed an MIC (Staphylococcus aureus [1]) of 0.03 to 3.9 µg/mL (≈ 0.0601 to 7.81 µM), an MIC (Streptococcus pyogenes) of 0.03 to 3.9 µg/mL (≈ 0.0601 to 7.81 µM) and an MIC (Bacillus subtilis [6]) of 0.03 to 3.9 µg/mL (≈ 0.0601 to 7.81 µM). It also gave an MIC (Proteus vulgaris) of 0.03 to 3.9 µg/mL (≈ 0.0601 to 7.81 µM), an MIC (Klebsiella pneumoniae) of 0.03 to 3.9 µg/mL (≈ 0.0601 to 7.81 µM) and an MIC (Shigella flexneri) of 0.03 to 3.9 µg/mL (≈ 0.0601 to 7.81 µM).

Compound `Cc1ccc2c(c1)C(=O)C(=O)N2CN1CCN(c2cc3c(cc2F)c(=O)c(C(=O)O)cn3C2CC2)CC1` has an MIC (Staphylococcus aureus [1]) of 0.1 to 0.5 µg/mL (≈ 0.198 to 0.991 µM), an MIC (Klebsiella pneumoniae) of 0.1 to 0.5 µg/mL (≈ 0.198 to 0.991 µM) and an MIC (Shigella flexneri) of 0.1 to 0.5 µg/mL (≈ 0.198 to 0.991 µM). For the same compound, the MIC (Escherichia coli [9]) was 0.1 to 0.5 µg/mL (≈ 0.198 to 0.991 µM), the MIC (Pseudomonas aeruginosa [2]) was 0.1 to 0.5 µg/mL (≈ 0.198 to 0.991 µM) and the MIC (Salmonella typhi) was 0.1 to 0.5 µg/mL (≈ 0.198 to 0.991 µM). For the same compound, the MIC (Vibrio cholerae) was 0.1 to 0.5 µg/mL (≈ 0.198 to 0.991 µM), the MIC [3] was 0.1 to 0.5 µg/mL (≈ 0.198 to 0.991 µM) and the MIC (Citrobacter freundii) was 0.1 to 0.5 µg/mL (≈ 0.198 to 0.991 µM).

With `Cc1ccc2c(c1)/C(=N/c1ccc(S(=O)(=O)Nc3cc(C)on3)cc1)C(=O)N2` the MIC (Staphylococcus aureus [10]) was 5 µg/mL (≈ 12.6 µM), the MIC (Bacillus cereus) was 5 µg/mL (≈ 12.6 µM) and the MIC (Escherichia coli [11]) was 5 µg/mL (≈ 12.6 µM). The MIC (Shigella dysenteriae [12]) was 1 µg/mL (≈ 2.52 µM) and the Ratio (Shigella dysenteriae [13]) was 2.5.

For `CCn1cc(C(=O)O)c(=O)c2cc(F)c(N3CCNCC3)cc21` [NORFLOXACIN], the ED50 (Escherichia coli [7]) was 6 mg/kg.

`CCOC(=O)CN1C(=O)/C(=C2\SC(=S)N(CC(=O)N(c3oc(NC(C)(C)C)c(C(=O)OC)c3C(=O)OC)C(C)(C)C)C2=O)c2cc(Cl)ccc21` showed a zone of inhibition at 20000 µg/mL (Escherichia coli [14]) of 15.6 to 26 mm, a zone of inhibition at 20000 µg/mL (Pseudomonas aeruginosa [15]) of 15.6 to 26 mm and a zone of inhibition at 20000 µg/mL (Staphylococcus aureus [16]) of 15.6 to 26 mm. It also gave a zone of inhibition at 20000 µg/mL (Bacillus subtilis [17]) of 15.6 to 26 mm.

With `CCn1cc(C(=O)O)c(=O)c2cc(F)c(N3CCNC(C)C3)c(F)c21` (stereo not given) [LOMEFLOXACIN] the MIC (Staphylococcus aureus [1]) was 0.25 to 2.5 µg/mL (≈ 0.712 to 7.12 µM), the MIC (Klebsiella pneumoniae) was 0.25 to 2.5 µg/mL (≈ 0.712 to 7.12 µM) and the MIC (Shigella flexneri) was 0.25 to 2.5 µg/mL (≈ 0.712 to 7.12 µM). It also gave an MIC (Escherichia coli [9]) of 0.25 to 2.5 µg/mL (≈ 0.712 to 7.12 µM), an MIC (Pseudomonas aeruginosa [2]) of 0.25 to 2.5 µg/mL (≈ 0.712 to 7.12 µM) and an MIC (Salmonella typhi) of 0.25 to 2.5 µg/mL (≈ 0.712 to 7.12 µM). The MIC (Vibrio cholerae) was 0.25 to 2.5 µg/mL (≈ 0.712 to 7.12 µM), the MIC [3] was 0.25 to 2.5 µg/mL (≈ 0.712 to 7.12 µM) and the MIC (Citrobacter freundii) was 0.25 to 2.5 µg/mL (≈ 0.712 to 7.12 µM).

Compound `CCOC(=O)c1c(NC(C)(C)C)oc(N(C(=O)CN2C(=O)/C(=C3/C(=O)N(CO)c4ccccc43)SC2=S)C(C)(C)C)c1C(=O)OCC` has a zone of inhibition at 20000 µg/mL (Escherichia coli [14]) of 15.6 to 26 mm, a zone of inhibition at 20000 µg/mL (Pseudomonas aeruginosa [15]) of 15.6 to 26 mm and a zone of inhibition at 20000 µg/mL (Staphylococcus aureus [16]) of 15.6 to 26 mm. It also gave a zone of inhibition at 20000 µg/mL (Bacillus subtilis [17]) of 15.6 to 26 mm.
